Data published in publication PMC7923178, “Binding of Amyloid β(1–42)-Calmodulin Complexes to Plasma Membrane Lipid Rafts in Cerebellar Granule Neurons Alters Resting Cytosolic Calcium Homeostasis” (International Journal of Molecular Sciences, 2021).

How the values were obtained:
[1] = tested on: L-type calcium channels (LTCCs); assay: LTCC contribution to resting cytosolic calcium (nifedipine-sensitive Fura-2 ratio)
calmodulin (CaM) [2] = assay: Co-immunoprecipitation of CaM with anti-Aβ antibody in CGN lysates; format: binding, rat; settings: CGN lysates treated with 10 mM methyl-β-cyclodextrin 30 min, western blot
calmodulin (CaM) [3] = assay: Aβ(1–42) binding capacity of CaM in CGN, from western blot quantification of CaM; parameters: species or system rat; settings: per Petri plate with […] 10^6 CGN cells (56 ± 6 picomoles CaM per plate); Aβ(1–42) largely dimers
mature CGN [4] = assay: Resting cytosolic calcium, Fura-2 ratio (340/380) imaging; format: cell-based, rat; settings: 2 μM, 2–5 h incubation; MLocke's K25 medium; control 160 ± 30 nM
[5] = target: purified calmodulin (CaM); settings: previous work, read-out: dissociation constant of the complex with purified CaM; cited from earlier work
Excerpt: Lipid rafts are a primary target in studies of amyloid β (Aβ) cytotoxicity in neurons. Exogenous Aβ peptides bind to lipid rafts, which in turn play a key role in Aβ uptake, leading to the formation of neurotoxic intracellular Aβ aggregates. On the other hand, dysregulation of intracellular calcium homeostasis in neurons has been observed in Alzheimer’s disease (AD). […] In this work, to experim ... || Dysregulation of intracellular calcium homeostasis in neurons is a common metabolic feature in both sporadic and familial forms of AD, which by itself can account for enhanced intraneuronal Aβ production and tau hyperphosphorylation potentiation. […] The ... || (+ 1 further places)

neurons = settings: small oligomeric states of the peptide; cited from earlier work
mature CGN [6] = assay: Internalization of Aβ(1–42) in mature CGN by fluorescence microscopy; settings: 2 h incubation with 2 µM Aβ in extracellular medium (1.8 μM Aβ(1–42) plus 0.2 μM HiLyte-Fluor555 derivative), 37 °C, 5% CO2, assuming equal internalization rate, 102 cells

| Compound | difference between the ratio 340/380 in the absence and presence of nifedipine ([1]; CGN non-treated with amyloid β(1–42), nifedipine 2 μM or 10 µM) | blockade of Ca2+ entry in the soma ([1]; nifedipine 10 µM, untreated and Aβ-treated cells) | co-immunoprecipitation of CaM with anti-Aβ(1–42) antibody (calmodulin (CaM) [2]) | Aβ(1–42) that can be bound by CaM in CGN (calmodulin (CaM) [3]) | [Ca^2+]i (mature CGN [4]) [nM] | Kd [5] [nM] | half-time of internalization in neurons (neurons) [h] | intracellular (internalized) concentration of Aβ monomers (mature CGN [6]) [nM] | inhibition of LTCC activity ([1]; 2 µM (monomers) in medium, 2 h incubation of mature CGN) | IC50 ([1]; read-out: concentration of internalized Aβ(1–42) dimers that inhibited by 50% the LTCC's activity, internalized dimers after 2 h with 2 µM monomers) [nM] |
| --- | --- | --- | --- | --- | --- | --- | --- | --- | --- | --- |
| COC(=O)C1=C(C)NC(C)=C(C(=O)OC)C1c1ccccc1[N+](=O)[O-] [nifedipine, Nifedipine] | 0.64 | totally blocks |  |  |  |  |  |  |  |  |
| Aβ(1–42): Unlabeled amyloid β(1–42) peptide synthesized and supplied by StabVida |  |  | co-immunoprecipitation of CaM with the anti-Aβ(1–42) antibody | up to 120 ± 13 picomoles of Aβ(1–42) /2.5 × 10^6 cells | 71 ± 7 | ~1 | 12 to 14 | 193 ± 21 | about 50% | < 100 |
| Aβ(25–35): amyloid β peptide fragment 25–35, cited from previous work (GSNKGAIIGLM; Amyloid-beta protein 42; UniProt P05067 696-706, looked up, fragment) |  |  |  |  |  | ~1 |  |  |  |  |
